Data as given in PMC9007139 (Journal of medicinal chemistry, 2020).

Experiments:
[1] = In vivo pharmacokinetics, rat; design: species or system Male Sprague-Dawley rats; conditions: male, Sprague-Dawley, plasma, iv, 0.3 mg/kg
[2] = In vivo pharmacokinetics, dog; design: species or system Male beagle dogs; conditions: male, beagle, plasma, iv, 0.3 mg/kg
in vitro = conditions: rat, microsomes, pH 7.4
Caco-2 permeability = type: in vitro ADME

Structure (SMILES): CNC(=O)c1cn(C[C@H](F)CCc2ccc(NC(=O)Cc3cc(C(F)(F)F)cc(C)n3)nn2)nn1 [Compound 26]
- clearance [1]: 1 mL/min/kg
- clearance [2]: 0.9 mL/min/kg

Structure (SMILES): CNC(=O)c1cn(C[C@H](F)CCc2ccc(NC(=O)Cc3cc(-c4cccc(OC(F)(F)F)c4)ccn3)nn2)nn1 [Compound 25]
- clearance [1]: 8 mL/min/kg
- clearance [2]: 2.9 mL/min/kg
- CLint scaled at 1 uM (in vitro): 22 mL/min/kg

Structure (SMILES): CNC(=O)c1cn(C[C@H](F)CCc2ccc(NC(=O)Cc3cc(OC4CC(F)(F)C4)cc(C)n3)nn2)nn1 [Compound 27, (R)-1-(4-(6-(2-(4-(3,3-difluorocyclobutoxy)-6-methylpyridin-2-yl)acetamido)pyridazin-3-yl)-2-fluorobutyl)-N-methyl-1H-1,2,3-triazole-4-carboxamide]
- efflux in Caco-2 assay (Caco-2 permeability): mild efflux
- clearance [1]: 0.3 mL/min/kg
- clearance [2]: 0.6 mL/min/kg

Structure (SMILES): CNC(=O)c1cn(C[C@H](F)CCc2ccc(NC(=O)Cc3cc(OC4CC(F)(F)C4)ccn3)nn2)nn1 [Compound 24]
- clearance [1]: 3 mL/min/kg
- clearance [2]: 3 mL/min/kg
